Test results published in ChEMBL document CHEMBL5543136, “Discovery of Novel Heterotricyclic Compounds as DNA-Dependent Protein Kinase (DNA-PK) Inhibitors with Enhanced Chemosensitivity, Oral Bioavailability, and the Ability to Potentiate Cancer Immunotherapy” (J Med Chem, 2024).
Active and inactive are the calls of the source. No cut-off for these calls is given here.

How the values were obtained:
[1] = system: Jurkat; assay: Synergistic antiproliferative activity against human Jurkat cells assessed as reduction in cell viability incubated for 48 hrs in presence of doxorubicin by CCK-8 assay; format: functional, cell-based
[2] = system: CT26; assay: Synergistic antiproliferative activity against mouse CT26 cells assessed as reduction in cell viability incubated for 48 hrs in presence of doxorubicin by CCK-8 assay; format: functional, cell-based; conditions: CT26, 48 h
[3] = Selectivity ratio of IC50 for antiproliferative activity against human Jurkat cells to IC50 for synergistic antiproliferative activity against human Jurkat cells in presence of doxorubicin; format: functional
[4] = Half-life in male Sprague-Dawley rat at 2 mg/kg, iv measured after 48 hrs by LC-MS/MS analysis; format: ADME, organism-based; conditions: in vivo
[5] = system: CT26; assay: Antitumor activity against mouse CT26 cells implanted in BALB/c mouse assessed as reduction in tumor weight by measuring tumor growth inhibition at 10 mg/kg, ip QD co-administered with doxorubicin for 21 days relative to control; format: functional; conditions: CT26, 504 h, time 21 day, read-out: TGI
[6] = system: B16-F10; assay: Immunomodulatory activity in mouse B16-F10 cells implanted in C57BL/6 mouse assessed as percentage of CD3 positive CD8 positive cells in tumor at 10 mg/kg, ip administered once daily for 13 days by flow cytometric analysis (reference value: 0.99%); format: functional; conditions: time 13 day
[7] = system: CT26; assay: Antitumor activity against mouse CT26 cells implanted in BALB/c mouse assessed as reduction in tumor volume at 10 mg/kg, ip administered once daily for 21 days relative to control; format: functional; parameters: scale not given: the % may be the effect or the level left; conditions: time 21 day
[8] = system: CT26; assay: Antiproliferative activity against mouse CT26 cells assessed as reduction in cell viability incubated for 48 hrs by CCK-8 assay; format: functional, cell-based; conditions: CT26, 48 h
[9] = Half-life in male Sprague-Dawley rat at 10 mg/kg, po measured after 48 hrs by LC-MS/MS analysis; format: ADME, organism-based; conditions: in vivo
[10] = Selectivity ratio of IC50 for antiproliferative activity against mouse B16-F10 cells to IC50 for synergistic antiproliferative activity against mouse B16-F10 cells in presence of doxorubicin; format: functional
[11] = system: Cell membrane; assay: Induction of mitochondrial membrane potential loss in human Jurkat cells at 1 uM incubated for 24 hrs in presence of doxorubicin by JC-1 staining based flow cytometric analysis; format: cell membranes
[12] = Toxicity in C57BL/6 mouse implanted with mouse B16-F10 cells assessed as effect on body weight at 10 mg/kg, ip QD co-administered with SWS1 for 13 days; format: organism-based; conditions: in vivo, 312 h, time 13 day
[13] = Cmax in male Sprague-Dawley rat at 10 mg/kg, po measured after 48 hrs by LC-MS/MS analysis; format: ADME, organism-based; conditions: in vivo
[14] = AUC (0 to infinity) in male Sprague-Dawley rat at 2 mg/kg, iv measured after 48 hrs by LC-MS/MS analysis; format: ADME, organism-based; conditions: in vivo
[15] = system: B16-F10; assay: Immunomodulatory activity in mouse B16-F10 cells implanted in C57BL/6 mouse assessed as percentage of CD3 positive CD8 positive cells in tumor at 10 mg/kg, ip QD co-administered with PD-L1 antibody for 13 days by flow cytometric analysis (reference value: 0.99%); format: functional; conditions: time 13 day
[16] = C0 in male Sprague-Dawley rat at 2 mg/kg, iv measured after 48 hrs by LC-MS/MS analysis; format: ADME, organism-based; conditions: in vivo
[17] = system: CT26; assay: Antitumor activity against mouse CT26 cells implanted in BALB/c mouse assessed as reduction in tumor volume by measuring tumor growth inhibition at 10 mg/kg, ip QD co-administered with doxorubicin for 21 days relative to control; format: functional; conditions: CT26, 504 h, time 21 day, read-out: TGI
[18] = system: CT26; assay: Antitumor activity against mouse CT26 cells implanted in BALB/c mouse assessed as reduction in tumor weight at 10 mg/kg, ip administered once daily for 21 days relative to control; format: functional; parameters: scale not given: the % may be the effect or the level left; conditions: time 21 day
[19] = system: B16-F10; assay: Antiproliferative activity against mouse B16-F10 cells assessed as reduction in cell viability incubated for 48 hrs by CCK-8 assay; format: functional, cell-based; conditions: B16-F10, 48 h
[20] = Toxicity in BALB/c mouse implanted with mouse CT26 cells assessed as weight loss at 10 mg/kg, ip administered once daily for 21 days; format: organism-based; conditions: in vivo, 504 h, time 21 day
[21] = system: Jurkat; assay: Induction of cell cycle arrest in human Jurkat cells assessed as decrease in S phase cells at 1 uM incubated for 24 hrs in presence of doxorubicin by PI staining based flow cytometric analysis; format: functional
[22] = Apparent volume of distribution in male Sprague-Dawley rat at 2 mg/kg, iv measured after 48 hrs by LC-MS/MS analysis; format: ADME, organism-based; conditions: in vivo, read-out: Vz
[23] = system: B16-F10; assay: Immunomodulatory activity in mouse B16-F10 cells implanted in C57BL/6 mouse assessed as percentage of CD3 positive CD4 positive cells in tumor at 10 mg/kg, ip QD co-administered with PD-L1 antibody for 13 days by flow cytometric analysis (reference value: 0.86%); format: functional; conditions: time 13 day
[24] = system: Cell membrane; assay: Induction of mitochondrial membrane potential loss in human Jurkat cells at 1 uM incubated for 24 hrs by JC-1 staining based flow cytometric analysis; format: cell membranes
[25] = AUC (0 to t) in male Sprague-Dawley rat at 10 mg/kg, po measured after 48 hrs by LC-MS/MS analysis; format: ADME, organism-based; conditions: in vivo
[26] = system: HepG2; assay: Inhibition of DNA damage repair in human HepG2 cells assessed as reduction in gammaH2AX expression level by Western blot analysis; format: functional, cell-based; conditions: dose 10-40 µM
[27] = Clearance in male Sprague-Dawley rat at 10 mg/kg, po measured after 48 hrs by LC-MS/MS analysis; format: ADME, organism-based; conditions: in vivo
[28] = AUC (0 to infinity) in male Sprague-Dawley rat at 10 mg/kg, po measured after 48 hrs by LC-MS/MS analysis; format: ADME, organism-based; conditions: in vivo
[29] = Toxicity in BALB/c mouse implanted with mouse CT26 cells assessed as weight loss at 10 mg/kg, ip QD co-administered with doxorubicin for 21 days; format: organism-based; conditions: in vivo, 504 h, time 21 day
[30] = system: B16-F10; assay: Synergistic antiproliferative activity against mouse B16-F10 cells assessed as reduction in cell viability incubated for 48 hrs in presence of doxorubicin by CCK-8 assay; format: functional, cell-based; conditions: B16-F10, 48 h
[31] = molecular target: DNA-dependent protein kinase catalytic subunit (Homo sapiens, UniProt P78527); assay: Inhibition of human full-length DNA-PK using EPPLSQEAFADLWKK as substrate incubated for 60 mins in presence of ATP by ADP-Glo kinase assay
[32] = system: B16-F10; assay: Immunomodulatory activity in mouse B16-F10 cells implanted in C57BL/6 mouse assessed as percentage of CD3 positive CD8 positive cells in tumor at 10 mg/kg, ip QD co-administered with SWS1 for 13 days by flow cytometric analysis (reference value: 0.99%); format: functional; conditions: time 13 day
[33] = Toxicity in C57BL/6 mouse implanted with mouse B16-F10 cells assessed as change in liver histopathology at 10 mg/kg, ip administered once daily for 13 days by H&E staining based analysis; format: organism-based; conditions: in vivo, 312 h, time 13 day
[34] = system: Jurkat; assay: Inhibition of DNA damage repair in human Jurkat cells assessed as reduction in gammaH2AX expression level by Western blot analysis; format: functional, cell-based; conditions: dose 0.1-5 µM
[35] = system: B16-F10; assay: Immunomodulatory activity in mouse B16-F10 cells implanted in C57BL/6 mouse assessed as percentage of CD3 positive CD4 positive cells in tumor at 10 mg/kg, ip QD co-administered with SWS1 for 13 days by flow cytometric analysis (reference value: 0.86%); format: functional; conditions: time 13 day

DNA-dependent protein kinase catalytic subunit, sequence (P78527 whole entry): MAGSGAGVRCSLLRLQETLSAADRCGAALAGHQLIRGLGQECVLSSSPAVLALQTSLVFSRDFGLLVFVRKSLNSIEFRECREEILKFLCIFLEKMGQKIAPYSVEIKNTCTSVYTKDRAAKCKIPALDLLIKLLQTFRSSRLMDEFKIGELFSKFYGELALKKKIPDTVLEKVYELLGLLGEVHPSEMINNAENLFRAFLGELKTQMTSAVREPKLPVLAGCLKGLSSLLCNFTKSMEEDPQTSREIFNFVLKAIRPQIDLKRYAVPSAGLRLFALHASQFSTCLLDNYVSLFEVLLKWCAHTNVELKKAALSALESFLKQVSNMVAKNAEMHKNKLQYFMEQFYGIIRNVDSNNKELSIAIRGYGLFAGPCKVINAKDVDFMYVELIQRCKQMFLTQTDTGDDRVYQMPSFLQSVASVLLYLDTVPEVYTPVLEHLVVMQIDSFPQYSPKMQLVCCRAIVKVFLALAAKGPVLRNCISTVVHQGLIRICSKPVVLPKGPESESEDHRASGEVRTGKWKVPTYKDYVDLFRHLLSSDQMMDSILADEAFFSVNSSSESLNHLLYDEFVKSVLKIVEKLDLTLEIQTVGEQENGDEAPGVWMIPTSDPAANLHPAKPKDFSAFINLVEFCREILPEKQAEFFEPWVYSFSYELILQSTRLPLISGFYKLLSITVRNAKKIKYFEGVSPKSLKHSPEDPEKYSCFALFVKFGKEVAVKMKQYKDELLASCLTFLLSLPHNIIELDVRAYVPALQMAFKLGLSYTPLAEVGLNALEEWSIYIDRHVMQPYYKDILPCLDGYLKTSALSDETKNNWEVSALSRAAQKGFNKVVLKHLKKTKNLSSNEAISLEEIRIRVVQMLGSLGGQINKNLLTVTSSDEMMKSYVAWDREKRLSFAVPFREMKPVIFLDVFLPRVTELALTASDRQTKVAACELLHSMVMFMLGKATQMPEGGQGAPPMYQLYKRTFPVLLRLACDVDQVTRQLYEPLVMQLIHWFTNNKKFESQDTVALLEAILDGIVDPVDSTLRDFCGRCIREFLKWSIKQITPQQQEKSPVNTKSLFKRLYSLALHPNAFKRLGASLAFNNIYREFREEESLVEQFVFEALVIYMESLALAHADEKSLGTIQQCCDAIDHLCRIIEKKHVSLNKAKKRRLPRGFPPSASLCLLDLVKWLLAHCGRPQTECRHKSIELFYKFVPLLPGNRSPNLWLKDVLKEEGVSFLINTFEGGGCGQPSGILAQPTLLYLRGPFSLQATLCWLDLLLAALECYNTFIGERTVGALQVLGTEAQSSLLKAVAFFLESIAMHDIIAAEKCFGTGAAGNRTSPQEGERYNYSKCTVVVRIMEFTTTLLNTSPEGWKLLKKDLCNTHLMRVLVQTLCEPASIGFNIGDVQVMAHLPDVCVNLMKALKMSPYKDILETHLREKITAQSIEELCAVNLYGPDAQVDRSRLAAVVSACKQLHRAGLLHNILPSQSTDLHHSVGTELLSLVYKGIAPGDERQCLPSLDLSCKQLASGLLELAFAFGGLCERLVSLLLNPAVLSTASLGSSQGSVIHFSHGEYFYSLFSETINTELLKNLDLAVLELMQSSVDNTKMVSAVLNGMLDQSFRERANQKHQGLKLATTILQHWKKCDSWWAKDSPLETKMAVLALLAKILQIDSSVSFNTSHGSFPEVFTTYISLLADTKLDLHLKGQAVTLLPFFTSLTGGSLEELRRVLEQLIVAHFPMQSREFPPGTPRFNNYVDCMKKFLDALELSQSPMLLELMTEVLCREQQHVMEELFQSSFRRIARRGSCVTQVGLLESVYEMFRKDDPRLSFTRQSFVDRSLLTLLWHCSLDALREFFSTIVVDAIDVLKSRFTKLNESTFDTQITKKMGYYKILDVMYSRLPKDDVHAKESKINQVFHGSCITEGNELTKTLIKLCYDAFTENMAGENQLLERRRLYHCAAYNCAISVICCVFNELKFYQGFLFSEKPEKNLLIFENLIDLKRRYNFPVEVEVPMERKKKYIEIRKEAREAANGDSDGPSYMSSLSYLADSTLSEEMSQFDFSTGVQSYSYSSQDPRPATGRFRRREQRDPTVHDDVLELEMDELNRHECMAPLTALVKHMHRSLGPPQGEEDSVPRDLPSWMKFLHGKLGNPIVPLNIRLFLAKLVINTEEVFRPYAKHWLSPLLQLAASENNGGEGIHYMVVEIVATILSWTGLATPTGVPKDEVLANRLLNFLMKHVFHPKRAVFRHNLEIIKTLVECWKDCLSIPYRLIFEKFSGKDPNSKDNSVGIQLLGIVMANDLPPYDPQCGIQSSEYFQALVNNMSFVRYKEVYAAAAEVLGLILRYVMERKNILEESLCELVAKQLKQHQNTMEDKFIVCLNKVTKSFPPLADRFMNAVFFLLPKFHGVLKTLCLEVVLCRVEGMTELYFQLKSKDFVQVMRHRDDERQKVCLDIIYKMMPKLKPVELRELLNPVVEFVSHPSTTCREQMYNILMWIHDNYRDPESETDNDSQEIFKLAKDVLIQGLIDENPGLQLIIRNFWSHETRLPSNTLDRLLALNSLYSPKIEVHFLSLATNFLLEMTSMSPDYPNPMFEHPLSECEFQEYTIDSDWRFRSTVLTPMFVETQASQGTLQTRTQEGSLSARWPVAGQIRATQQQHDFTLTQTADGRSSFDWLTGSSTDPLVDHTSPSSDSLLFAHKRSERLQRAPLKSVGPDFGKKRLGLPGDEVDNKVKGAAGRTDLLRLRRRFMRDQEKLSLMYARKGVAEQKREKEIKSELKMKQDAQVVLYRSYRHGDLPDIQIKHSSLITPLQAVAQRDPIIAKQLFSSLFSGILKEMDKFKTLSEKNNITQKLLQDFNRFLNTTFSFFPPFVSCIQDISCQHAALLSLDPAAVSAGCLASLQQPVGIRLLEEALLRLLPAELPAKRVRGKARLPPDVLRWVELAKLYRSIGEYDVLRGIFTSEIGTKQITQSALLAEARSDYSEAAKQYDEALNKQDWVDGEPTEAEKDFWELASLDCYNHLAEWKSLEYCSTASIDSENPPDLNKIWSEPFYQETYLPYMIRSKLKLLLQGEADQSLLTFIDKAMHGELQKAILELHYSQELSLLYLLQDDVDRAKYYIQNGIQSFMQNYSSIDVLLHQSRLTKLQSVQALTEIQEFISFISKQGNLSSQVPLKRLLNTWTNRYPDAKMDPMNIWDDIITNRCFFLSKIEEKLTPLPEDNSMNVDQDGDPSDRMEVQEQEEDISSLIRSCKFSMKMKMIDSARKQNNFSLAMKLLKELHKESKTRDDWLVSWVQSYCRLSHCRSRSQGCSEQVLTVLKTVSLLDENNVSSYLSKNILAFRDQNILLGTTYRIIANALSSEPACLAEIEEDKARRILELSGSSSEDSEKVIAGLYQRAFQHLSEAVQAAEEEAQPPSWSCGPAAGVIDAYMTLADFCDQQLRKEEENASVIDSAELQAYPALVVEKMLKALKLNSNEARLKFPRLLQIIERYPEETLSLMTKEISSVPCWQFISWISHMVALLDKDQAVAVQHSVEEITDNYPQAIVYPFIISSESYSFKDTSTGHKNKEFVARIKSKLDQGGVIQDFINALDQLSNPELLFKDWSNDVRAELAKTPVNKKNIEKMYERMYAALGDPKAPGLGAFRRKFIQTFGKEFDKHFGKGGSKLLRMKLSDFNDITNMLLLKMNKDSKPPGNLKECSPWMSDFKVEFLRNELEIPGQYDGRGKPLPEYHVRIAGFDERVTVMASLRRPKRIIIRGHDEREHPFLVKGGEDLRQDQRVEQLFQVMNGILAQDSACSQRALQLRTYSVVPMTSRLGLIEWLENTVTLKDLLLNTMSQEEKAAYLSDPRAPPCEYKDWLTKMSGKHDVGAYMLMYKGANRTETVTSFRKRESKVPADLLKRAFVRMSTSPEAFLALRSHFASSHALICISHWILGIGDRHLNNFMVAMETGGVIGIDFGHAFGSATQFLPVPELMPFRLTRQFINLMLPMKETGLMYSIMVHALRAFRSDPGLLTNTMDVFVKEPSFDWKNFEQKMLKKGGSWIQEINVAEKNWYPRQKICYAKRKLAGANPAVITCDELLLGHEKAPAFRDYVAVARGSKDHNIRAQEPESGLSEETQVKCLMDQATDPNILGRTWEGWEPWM

Which IC50 [1] does the source give for `Cc1cc2cccnc2cc1Nc1ncc2c(n1)N(C1CCOCC1)Cc1nncn1-2` here?
The IC50 was 0.02 µM.

What about the IC50 [2] of the same molecule?
The IC50 was 9.7 µM.

And the “Ratio IC50” value [3]?
The value was 30.

And the half-life [4]?
The half-life was 1 h.

What about the inhibition in vivo at 10 mg/kg [5] of the same molecule?
The inhibition in vivo at 10 mg/kg was 50.2%.

What about the Activity [6] of the same molecule?
Its Activity is 1.12%.

And the Activity [7]?
Its Activity is 32.1%.

What about the IC50 [8] of the same molecule?
Its IC50 is 4.1 µM.

And the half-life [9]?
The half-life was 2 h.

And the “Ratio IC50” value [10]?
Its value is 2.1.

What about the Activity [11] of the same molecule?
The Activity was “Active”.

And the Activity [12]?
Its Activity is “Non-Toxic”.

And the Cmax [13]?
Its Cmax is 324 ng/mL.

What about the AUC(0-inf) [14] of the same molecule?
Its AUC(0-inf) is 605 ng·h/mL.

What about the Activity [15] of the same molecule?
Its Activity is 5.17%.

And the C0 at 48 h [16]?
The C0 at 48 h was 1000 ng/mL.

And the inhibition in vivo at 10 mg/kg [17]?
The inhibition in vivo at 10 mg/kg was 59.5%.

What about the Activity [18] of the same molecule?
The Activity was 30.8%.

What about the IC50 [19] of the same molecule?
Its IC50 is 10.3 µM.

What about the Activity [20] of the same molecule?
The Activity was “Non-Toxic”.

What about the Activity [21] of the same molecule?
Its Activity is “Active”.

What about the Vd [22] of the same molecule?
Its Vd is 4.7 L/kg.

And the Activity [23]?
The Activity was 4.06%.

What about the Activity [24] of the same molecule?
Its Activity is “inactive”.

What about the AUC(0-t) at 48 h [25] of the same molecule?
Its AUC(0-t) at 48 h is 950 ng·h/mL.

What about the inhibition [26] of the same molecule?
The inhibition was “Dose-Dependent Effect”.

And the CL/F [27]?
Its CL/F is 210 mL/min/kg.

And the AUC(0-inf) [28]?
The AUC(0-inf) was 962 ng·h/mL.

What about the Activity [29] of the same molecule?
The Activity was “Non-Toxic”.

What about the IC50 [30] of the same molecule?
The IC50 was 4.9 µM.

What about the IC50 [31] of the same molecule?
The IC50 was 0.00011 µM.

And the Activity [32]?
The Activity was 5.17%.

What about the Activity [33] of the same molecule?
The Activity was “Non-Toxic”.

What about the inhibition [34] of the same molecule?
The inhibition was “Dose-Dependent Effect”.

And the Activity [35]?
Its Activity is 4.02%.
